# Source: patent US20180200257A1, “METHODS FOR THE TREATMENT OF INFLAMMATORY DISORDERS” (Galapagos NV, priority 2015, published 2018)
# Test system: subjects with moderately to severely active RA who have an inadequate response to methotrexate (MTX)
# Assay: Study 1 (add-on to MTX) - serum CRP values
# Assay type: in vivo, human
# Protocol: Double-blind, placebo-controlled add on study in subjects with moderately to severely active RA who have an inadequate response to methotrexate (MTX) (oral or parenteral).
# 595 subjects randomized to one of 6 dose regimens of Compound 1 (dosed as [Compound 1:HCl:3H2O]) (3 dose levels administered either once or twice daily) or placebo on top of each subject's stable dose of MTX.
# Compound 1 (dosed as [Compound 1:HCl:3H2O]) is dosed for twelve weeks once daily (q.d.) (50 mg, 100 mg or 200 mg) or twice daily (b.i.d.) (25 mg, 50 mg or 100 mg); or placebo.
# At Week 12, the subjects on placebo who have not achieved 20% improvement in swollen joint count (SJC66) and tender joint count (TJC68) are re-randomized automatically to receive Compound 1 (dosed as a [Compound 1:HCl:3H2O]) either at 100 mg q.d. or 50 mg b.i.d. doses in a blinded fashion; subjects on 50 mg q.d. who have not achieved 20% improvement in SJC66 and TJC68 will be assigned to 100 mg q.d. and subjects on 25 mg b.i.d. that have not achieved a 20% improvement in SJC66 and TJC68 will be assigned to 50 mg b.i.d. Subjects who switch treatment at week 12 are handled as if they discontinued at week 12 for the purpose of statistical analysis, whereas subjects in the other groups will maintain their randomized treatment until Week 24.
# CRP determination is available at Quest Diagnostics, Clinical Trials, Quest House, 125-135 Staines Road, Hounslow, Middlesex, TW3 3JB, United Kingdom under Catalogue n#86140.
# The determination of CRP is made using Immunoturbidimetric assay for the in vitro quantitative determination of CRP in human serum and plasma on Roche/Hitachi cobas c systems, wherein human CRP agglutinates with latex particles coated with monoclonal anti-CRP antibodies. The aggregates are determined turbidimetrically (Eda et al., 1998; Price et al., 1987).
# Human serum and plasma samples CRP determination was done on a Roche/Hitachi Cobas c 301 c 501/502 system which automatically calculate the analyte concentration of each sample. Samples containing precipitates are centrifuged before performing the assay.
# The machine parameters are listed in Table XCI and Table XCII below, and the results at 12 weeks v using either LOCF are shown in Table XCIII and below. The Hommel-corrected p-value for the pairwise comparisons of each group with placebo is shown.
# The number of subjects (N) provided in each groups corresponds to the number of subjects starting the study in each group, and the CRP data reported below corresponds to the responding subjects continuing for the entire 24 weeks on their initial treatment course.
compound,measurement,setting,value
"O=C(Nc1nc2cccc(-c3ccc(CN4CCS(=O)(=O)CC4)cc3)n2n1)C1CC1 [Compound 1, cyclopropanecarboxylic acid {5-[4-(1,1-dioxo-thiomorpholin-4-ylmethyl)-phenyl]-[1,2,4]triazolo[1,5-a]pyridin-2-yl}-amide]",CRP mean CFB mg/L (LOCF),"50 mg q.d., week 1, 12 weeks results",-7.95 mg/L
same,CRP mean CFB mg/L (LOCF),"50 mg q.d., week 1, 24 weeks results",-7.95 mg/L
same,CRP mean CFB mg/L (LOCF),"50 mg q.d., week 2, 12 weeks results",-8.23 mg/L
same,CRP mean CFB mg/L (LOCF),"50 mg q.d., week 2, 24 weeks results",-8.23 mg/L
same,CRP mean CFB mg/L (LOCF),"50 mg q.d., week 4, 12 weeks results",-10.18 mg/L
same,CRP mean CFB mg/L (LOCF),"50 mg q.d., week 4, 24 weeks results",-10.18 mg/L
same,CRP mean CFB mg/L (LOCF),"50 mg q.d., week 12, 12 weeks results",-13.15 mg/L
same,CRP mean CFB mg/L (LOCF),"50 mg q.d., week 12, 24 weeks results",-13.15 mg/L
same,CRP mean CFB mg/L (LOCF),"50 mg q.d., week 16, 24 weeks results",-13.55 mg/L
same,CRP mean CFB mg/L (LOCF),"50 mg q.d., week 20, 24 weeks results",-13.12 mg/L
same,CRP mean CFB mg/L (LOCF),"50 mg q.d., week 24, 24 weeks results",-15.22 mg/L
same,CRP mean CFB mg/L (LOCF),"50 mg q.d., week 8, 12 weeks results",-12.02 mg/L
same,CRP mean CFB mg/L (LOCF),"50 mg q.d., week 8, 24 weeks results",-12.02 mg/L
same,CRP mean CFB mg/L (LOCF),"100 mg q.d., week 1, 12 weeks results",-11.02 mg/L
same,CRP mean CFB mg/L (LOCF),"100 mg q.d., week 1, 24 weeks results",-11.02 mg/L
same,CRP mean CFB mg/L (LOCF),"100 mg q.d., week 2, 12 weeks results",-12.94 mg/L
same,CRP mean CFB mg/L (LOCF),"100 mg q.d., week 2, 24 weeks results",-12.94 mg/L
same,CRP mean CFB mg/L (LOCF),"100 mg q.d., week 4, 12 weeks results",-13.18 mg/L
same,CRP mean CFB mg/L (LOCF),"100 mg q.d., week 4, 24 weeks results",-13.18 mg/L
same,CRP mean CFB mg/L (LOCF),"100 mg q.d., week 8, 24 weeks results",-12.48 mg/L
same,CRP mean CFB mg/L (LOCF),"100 mg q.d., week 12, 12 weeks results",-13.57 mg/L
same,CRP mean CFB mg/L (LOCF),"100 mg q.d., week 12, 24 weeks results",-13.57 mg/L
same,CRP mean CFB mg/L (LOCF),"100 mg q.d., week 16, 24 weeks results",-11.66 mg/L
same,CRP mean CFB mg/L (LOCF),"100 mg q.d., week 20, 24 weeks results",-14.50 mg/L
same,CRP mean CFB mg/L (LOCF),"100 mg q.d., week 24, 24 weeks results",-14.89 mg/L
same,CRP mean CFB mg/L (LOCF),"100 mg q.d., week 8, 12 weeks results",-12.48 mg/L
same,CRP mean CFB mg/L (LOCF),"200 mg q.d., week 1, 12 weeks results",-17.06 mg/L
same,CRP mean CFB mg/L (LOCF),"200 mg q.d., week 1, 24 weeks results",-17.06 mg/L
same,CRP mean CFB mg/L (LOCF),"200 mg q.d., week 2, 12 weeks results",-17.51 mg/L
same,CRP mean CFB mg/L (LOCF),"200 mg q.d., week 2, 24 weeks results",-17.51 mg/L
same,CRP mean CFB mg/L (LOCF),"200 mg q.d., week 4, 12 weeks results",-17.94 mg/L
same,CRP mean CFB mg/L (LOCF),"200 mg q.d., week 4, 24 weeks results",-17.94 mg/L
same,CRP mean CFB mg/L (LOCF),"200 mg q.d., week 8, 24 weeks results",-17.22 mg/L
same,CRP mean CFB mg/L (LOCF),"200 mg q.d., week 12, 12 weeks results",-17.24 mg/L
same,CRP mean CFB mg/L (LOCF),"200 mg q.d., week 12, 24 weeks results",-17.24 mg/L
same,CRP mean CFB mg/L (LOCF),"200 mg q.d., week 16, 24 weeks results",-20.38 mg/L
same,CRP mean CFB mg/L (LOCF),"200 mg q.d., week 20, 24 weeks results",-17.89 mg/L
same,CRP mean CFB mg/L (LOCF),"200 mg q.d., week 24, 24 weeks results",-15.57 mg/L
same,CRP mean CFB mg/L (LOCF),"200 mg q.d., week 8, 12 weeks results",-17.22 mg/L
same,CRP mean CFB mg/L (LOCF),"2 × 25 mg b.i.d., week 2, 12 weeks results",-10.06 mg/L
same,CRP mean CFB mg/L (LOCF),"2 × 25 mg b.i.d., week 2, 24 weeks results",-10.06 mg/L
same,CRP mean CFB mg/L (LOCF),"2 × 25 mg b.i.d., week 4, 12 weeks results",-7.72 mg/L
same,CRP mean CFB mg/L (LOCF),"2 × 25 mg b.i.d., week 4, 24 weeks results",-7.72 mg/L
same,CRP mean CFB mg/L (LOCF),"2 × 25 mg b.i.d., week 8, 12 weeks results",-10.94 mg/L
same,CRP mean CFB mg/L (LOCF),"2 × 25 mg b.i.d., week 8, 24 weeks results",-10.94 mg/L
same,CRP mean CFB mg/L (LOCF),"2 × 25 mg b.i.d., week 12, 12 weeks results",-10.26 mg/L
same,CRP mean CFB mg/L (LOCF),"2 × 25 mg b.i.d., week 12, 24 weeks results",-10.26 mg/L
same,CRP mean CFB mg/L (LOCF),"2 × 25 mg b.i.d., week 16, 24 weeks results",-12.55 mg/L
same,CRP mean CFB mg/L (LOCF),"2 × 25 mg b.i.d., week 20, 24 weeks results",-12.20 mg/L
same,CRP mean CFB mg/L (LOCF),"2 × 25 mg b.i.d., week 24, 24 weeks results",-11.68 mg/L
same,CRP mean CFB mg/L (LOCF),"2 × 25 mg b.i.d., Week 1, 12 weeks results",-8.47 mg/L
same,CRP mean CFB mg/L (LOCF),"2 × 25 mg b.i.d., Week 1, 24 weeks results",-8.47 mg/L
same,CRP mean CFB mg/L (LOCF),"2 × 50 mg b.i.d., week 2, 12 weeks results",-11.03 mg/L
same,CRP mean CFB mg/L (LOCF),"2 × 50 mg b.i.d., week 2, 24 weeks results",-11.03 mg/L
same,CRP mean CFB mg/L (LOCF),"2 × 50 mg b.i.d., week 4, 12 weeks results",-13.28 mg/L
same,CRP mean CFB mg/L (LOCF),"2 × 50 mg b.i.d., week 4, 24 weeks results",-13.28 mg/L
same,CRP mean CFB mg/L (LOCF),"2 × 50 mg b.i.d., week 8, 12 weeks results",-13.25 mg/L
same,CRP mean CFB mg/L (LOCF),"2 × 50 mg b.i.d., week 8, 24 weeks results",-13.25 mg/L
same,CRP mean CFB mg/L (LOCF),"2 × 50 mg b.i.d., week 12, 12 weeks results",-12.97 mg/L
same,CRP mean CFB mg/L (LOCF),"2 × 50 mg b.i.d., week 12, 24 weeks results",-12.97 mg/L
same,CRP mean CFB mg/L (LOCF),"2 × 50 mg b.i.d., week 16, 24 weeks results",-12.57 mg/L
same,CRP mean CFB mg/L (LOCF),"2 × 50 mg b.i.d., week 20, 24 weeks results",-13.16 mg/L
same,CRP mean CFB mg/L (LOCF),"2 × 50 mg b.i.d., week 24, 24 weeks results",-11.96 mg/L
same,CRP mean CFB mg/L (LOCF),"2 × 50 mg b.i.d., Week 1, 12 weeks results",-10.08 mg/L
same,CRP mean CFB mg/L (LOCF),"2 × 50 mg b.i.d., Week 1, 24 weeks results",-10.08 mg/L
same,CRP mean CFB mg/L (LOCF),"2 × 100 mg b.i.d., week 2, 12 weeks results",-19.69 mg/L
same,CRP mean CFB mg/L (LOCF),"2 × 100 mg b.i.d., week 2, 24 weeks results",-19.69 mg/L
same,CRP mean CFB mg/L (LOCF),"2 × 100 mg b.i.d., week 4, 12 weeks results",-20.64 mg/L
same,CRP mean CFB mg/L (LOCF),"2 × 100 mg b.i.d., week 4, 24 weeks results",-20.64 mg/L
same,CRP mean CFB mg/L (LOCF),"2 × 100 mg b.i.d., week 8, 12 weeks results",-21.32 mg/L
same,CRP mean CFB mg/L (LOCF),"2 × 100 mg b.i.d., week 8, 24 weeks results",-21.32 mg/L
same,CRP mean CFB mg/L (LOCF),"2 × 100 mg b.i.d., week 12, 12 weeks results",-20.54 mg/L
same,CRP mean CFB mg/L (LOCF),"2 × 100 mg b.i.d., week 12, 24 weeks results",-20.54 mg/L
same,CRP mean CFB mg/L (LOCF),"2 × 100 mg b.i.d., week 16, 24 weeks results",-21.34 mg/L
same,CRP mean CFB mg/L (LOCF),"2 × 100 mg b.i.d., week 20, 24 weeks results",-20.80 mg/L
same,CRP mean CFB mg/L (LOCF),"2 × 100 mg b.i.d., week 24, 24 weeks results",-20.82 mg/L
same,CRP mean CFB mg/L (LOCF),"2 × 100 mg b.i.d., Week 1, 12 weeks results",-17.39 mg/L
same,CRP mean CFB mg/L (LOCF),"2 × 100 mg b.i.d., Week 1, 24 weeks results",-17.39 mg/L
